Results: publication PMC12169615, “Fluorescent 4‑Nitrobenzo-2-oxa-1,3-diazole-Coupled Bile Acids as Probe Substrates of Hepatic and Intestinal Bile Acid Transporters of the Solute Carrier Families SLC10 and SLCO” (Journal of Medicinal Chemistry, 2025)
Several values for one entry are separate records, joined by “and”; a condition that tells them apart may be missing. Identical values can stand only once.

Key:
HEK293 cells = assay: Fluorescence microscopy screening: accumulation independent from control conditions; format: cell-based, human; settings: 50 μM, 10 min, all HEK293 cell lines, with and without sodium
Procedure: (§1) Then, all cell lines were cultivated in chamber slides and were grown to confluence to screen for carrier-mediated cellular accumulation of the synthesized NBD-BA. Incubation with the NBD-BA was done in the presence of sodium (+Na^+) as well as in the absence of sodium (-Na^+, negative control) for all SLC10 carriers, namely NTCP, ASBT, mNtcp, mAsbt, and SOAT. For OATP1B1 and OATP1B3, nontransfected HEK293 cells were used as negative control.
(§2) 4 Screening of the cellular uptake of 3-NBD-BA in HEK293 (HEK) cells stably expressing the human carriers NTCP, ASBT, SOAT, OATP1B1, and OATP1B3, or the mouse carriers mNtcp and mAsbt. For the SLC10 carriers, sodium-free conditions (-Na^+) were used as control. For the OATPs, experiments in non-carrier-expressing HEK293 cells (HEK) served as control. All cell lines were incubated for 10 min with the indicated 3-NBD-BA at 50 μM concentration. Then, cells were washed with PBS and subjected to fluorescence microscopy. Identical microscope settings were used for all images. Scale bar: 75 μm.

mouse mAsbt = target: T1, mouse mAsbt (Mus musculus, UniProt P70172); assay: Fluorescence microscopy screening of cellular uptake of 3-NBD-BA; format: cell-based; design: stably transfected with the full open reading frames of human NTCP, ASBT, SOAT, OATP1B1, and OATP1B3 as well as mouse mNtcp and mAsbt; expressed in transfected cells; settings: 50 μM, 10 min, +Na+ vs -Na+
T1 sequence (P70172 1-348): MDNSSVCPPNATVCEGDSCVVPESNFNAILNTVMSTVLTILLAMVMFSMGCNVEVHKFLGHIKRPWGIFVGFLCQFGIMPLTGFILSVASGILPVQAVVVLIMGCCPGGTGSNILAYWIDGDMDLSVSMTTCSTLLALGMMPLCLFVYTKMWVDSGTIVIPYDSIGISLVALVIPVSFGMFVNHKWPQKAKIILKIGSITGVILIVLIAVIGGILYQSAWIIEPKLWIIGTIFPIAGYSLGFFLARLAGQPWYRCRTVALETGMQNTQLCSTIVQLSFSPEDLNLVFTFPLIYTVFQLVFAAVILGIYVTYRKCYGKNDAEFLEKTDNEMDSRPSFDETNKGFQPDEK
Procedure: as §1, §2

human NTCP [1] = target: T2, human NTCP (Homo sapiens, UniProt Q14973); assay: as above; format: cell-based; settings: 50 μM, 10 min, +Na+ vs -Na+
T2 construct: HEK293 cell lines stably transfected with the full open reading frames of human NTCP; expressed in transfected cells
T2 sequence (Q14973 1-349): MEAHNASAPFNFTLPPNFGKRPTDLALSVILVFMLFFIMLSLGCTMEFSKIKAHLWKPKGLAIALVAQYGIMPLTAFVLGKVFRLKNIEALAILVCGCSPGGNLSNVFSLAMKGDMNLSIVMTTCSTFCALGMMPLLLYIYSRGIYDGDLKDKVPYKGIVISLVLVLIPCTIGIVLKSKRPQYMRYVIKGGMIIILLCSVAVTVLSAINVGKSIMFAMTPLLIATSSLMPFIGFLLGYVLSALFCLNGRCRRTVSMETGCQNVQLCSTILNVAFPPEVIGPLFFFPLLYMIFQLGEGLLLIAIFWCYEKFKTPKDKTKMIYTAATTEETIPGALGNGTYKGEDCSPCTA
Procedure: as §1, §2

mouse mNtcp [2] = target: T3, mouse mNtcp (Mus musculus, UniProt O08705); assay: as above; format: cell-based; settings: 50 μM, 10 min, +Na+ vs -Na+
T3 construct: stably transfected with the full open reading frames of human NTCP, ASBT, SOAT, OATP1B1, and OATP1B3 as well as mouse mNtcp and mAsbt; expressed in transfected cells
T3 sequence (O08705 1-362): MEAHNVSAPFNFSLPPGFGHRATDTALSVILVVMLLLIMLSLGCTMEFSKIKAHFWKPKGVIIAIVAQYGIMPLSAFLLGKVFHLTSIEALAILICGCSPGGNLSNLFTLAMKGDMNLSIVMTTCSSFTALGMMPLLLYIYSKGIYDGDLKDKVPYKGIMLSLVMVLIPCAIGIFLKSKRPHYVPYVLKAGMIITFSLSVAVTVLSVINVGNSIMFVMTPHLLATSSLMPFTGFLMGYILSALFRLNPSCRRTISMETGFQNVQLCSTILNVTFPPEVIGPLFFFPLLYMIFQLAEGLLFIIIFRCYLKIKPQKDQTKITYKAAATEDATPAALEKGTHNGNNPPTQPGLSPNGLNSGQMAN
Procedure: as §1, §2

human NTCP [3] = target: T2, human NTCP; assay: Transport kinetics of conjugated 3-NBD-BA (concentration-dependent uptake); format: cell-based; settings: NTCP-HEK293, 10 min uptake, 37 °C, specific (Na+-dependent) uptake
Procedure: (§3) In a first step, the time-dependent transport of all conjugated NBD-BA was analyzed. […] Based on these findings, an uptake phase of 10 min was selected as the most practical for subsequent kinetic transport measurements. […] In contrast, for ASBT, reliable carrier-specific concentration-dependent transport rates and K m values could only be determined for 3α-NBD-GCA (16d). The transport rates for 3β-NBD-TCA (14a), 3β-NBD-TCDCA (14b), 3β-NBD-GCA (16a), and 3α-NBD-TCA (14d) were at ≤ 2 across the entire concentration range and were therefore not considered biologically meaningful.
(§4) 6 NTCP and mNtcp transport kinetics for conjugated 3-NBD-BA. Concentration-dependent uptake of the indicated NBD-coupled BA was analyzed in HEK293 cells stably expressing human NTCP or mouse mNtcp at increasing substrate concentrations. Control experiments were performed in the absence of sodium (-Na^+). Uptake was analyzed for 10 min at 37 °C with transport buffer containing the indicated 3-NBD-BA. Afterward, the transport medium was removed, and each cell monolayer was washed and processed for fluorescence detection. Specific uptake was calculated by subtracting the nonspecific uptake in the absence of sodium (-Na^+, open symbols) from the uptake in the presence of sodium (+Na^+, closed symbols) and is shown by dotted lines. Values represent means ± SD of quadruplicate determinations. Michaelis Menten K m values were calculated by nonlinear regression analysis based on the specific uptake data.

mouse mNtcp [4] = target: T3, mouse mNtcp; assay: as above; format: cell-based; settings: mNtcp-HEK293, 10 min uptake, 37 °C, specific (Na+-dependent) uptake
Procedure: as §3, §4

| Compound | Cellular NBD-fluorescence irrespective of carrier/control conditions (microscopy) (HEK293 cells) | Cellular NBD-fluorescence, mAsbt-HEK293 (microscopy) (mouse mAsbt) | Cellular NBD-fluorescence, NTCP-HEK293 (microscopy) (human NTCP [1]) | Cellular NBD-fluorescence, mNtcp-HEK293 (microscopy) (mouse mNtcp [2]) | K m NTCP (human NTCP [3]) | K m mNtcp (mouse mNtcp [4]) [µM] |
| --- | --- | --- | --- | --- | --- | --- |
| 7α-Hydroxy-3β-[(7-nitro-2,1,3-benzoxadiazol-4-yl)amino]-5β-cholan-24-oate [6b] | significant increase in cellular NBD-fluorescence, independent from the control conditions |  |  |  |  |  |
| 12α-Hydroxy-3β-[(7-nitro-2,1,3-benzoxadiazol-4-yl)amino]-5β-cholan-24-oate [6c] | significant increase in cellular NBD-fluorescence, independent from the control conditions |  |  |  |  |  |
| C[C@H](CCC(=O)O)[C@H]1CC[C@H]2[C@@H]3[C@H](O)C[C@@H]4C[C@@H](Nc5ccc([N+](=O)[O-])c6nonc56)CC[C@]4(C)[C@H]3C[C@H](O)[C@]12C [6a, 7α,12α-Dihydroxy-3β-[(7-nitro-2,1,3-benzoxadiazol-4-yl)amino]-5β-cholan-24-oate] | significant increase in cellular NBD-fluorescence, independent from the control conditions |  |  |  |  |  |
| C[C@H](CCC(=O)O)[C@H]1CC[C@H]2[C@@H]3[C@H](O)C[C@@H]4C[C@H](Nc5ccc([N+](=O)[O-])c6nonc56)CC[C@]4(C)[C@H]3C[C@H](O)[C@]12C [6d, 7α,12α-Dihydroxy-3α-[(7-nitro-2,1,3-benzoxadiazol-4-yl)amino]-5β-cholan-24-oate] | significant increase in cellular NBD-fluorescence, independent from the control conditions |  |  |  |  |  |
| C[C@H](CCC(=O)NCCS(=O)(=O)[O-])[C@H]1CC[C@H]2[C@@H]3[C@H](O)C[C@@H]4C[C@@H](Nc5ccc([N+](=O)[O-])c6nonc56)CC[C@]4(C)[C@H]3C[C@H](O)[C@]12C.[Na+] [14a] |  | significant increase in cellular NBD-fluorescence compared to the negative control | significant increase in cellular NBD-fluorescence compared to the negative control | significant increase in cellular NBD-fluorescence compared to the negative control | 29.5 µM | 20.6 |
| C[C@H](CCC(=O)NCCS(=O)(=O)[O-])[C@H]1CC[C@H]2[C@@H]3[C@H](O)C[C@@H]4C[C@H](Nc5ccc([N+](=O)[O-])c6nonc56)CC[C@]4(C)[C@H]3C[C@H](O)[C@]12C.[Na+] [14d] |  | significant increase in cellular NBD-fluorescence compared to the negative control | significant increase in cellular NBD-fluorescence compared to the negative control | significant increase in cellular NBD-fluorescence compared to the negative control | 20.0 µM and 20 µM | 9.5 |
| C[C@H](CCC(=O)NCC(=O)O)[C@H]1CC[C@H]2[C@@H]3[C@H](O)C[C@@H]4C[C@@H](Nc5ccc([N+](=O)[O-])c6nonc56)CC[C@]4(C)[C@H]3C[C@H](O)[C@]12C [16a] |  | significant increase in cellular NBD-fluorescence compared to the negative control | significant increase in cellular NBD-fluorescence compared to the negative control | significant increase in cellular NBD-fluorescence compared to the negative control | 43.1 µM | 17.2 |
| C[C@H](CCC(=O)NCC(=O)O)[C@H]1CC[C@H]2[C@@H]3[C@H](O)C[C@@H]4C[C@H](Nc5ccc([N+](=O)[O-])c6nonc56)CC[C@]4(C)[C@H]3C[C@H](O)[C@]12C [16d] |  | significant increase in cellular NBD-fluorescence compared to the negative control | significant increase in cellular NBD-fluorescence compared to the negative control | significant increase in cellular NBD-fluorescence compared to the negative control | 36.8 µM | 5.2 |
